Broadly, the IC50 is the concentration at which inhibition is half-maximal. The low end stands for greater potency in that assay, the high end for weaker potency in that assay.

Each structure is given as a SMILES string. Read-outs that look alike come from different tables or passages of the source.

The source of these data is paper PMC11831592, “Repurposing Linezolid in Conjunction with Histone Deacetylase Inhibitor Access in the Realm of Glioblastoma Therapies” (Journal of Medicinal Chemistry, 2025).

In series [1] the test system is CT-2A-R astrocytoma cells. The series can be described thus: Orthotopic CT-2A-R tumor model, IVIS. Type of series: in vivo, mouse. Particulars: 50 mg/kg orally. On the procedure: Animals were imaged using an IVIS to monitor tumor growth and target expression changes. Initially, animals were anesthetized with isoflurane prior to imaging to minimize movement artifacts. D-luciferin (150 mg/kg) was then administered via an intraperitoneal injection. After 60 s, animals were positioned on the imaging platform, and images were acquired with a 10-s exposure. Experimental data were collected and quantified for fluorescence or bioluminescence signals by using Living Image software in the IVIS system. After each imaging session, animal ID, imaging parameters, and imaging time were recorded for subsequent analysis.
For orthotopic inoculation, CT-2A cells (1 × 10^5) or CT-2A-R (2 × 10^5) were suspended in 4 μL of DMEM and implanted into the brain of B6 mice. PT#3-R cells (5 × 10^5) were suspended in 4 μL of DMEM and implanted into the brain of SCID mice. After cell implantation, mice were monitored daily for survival, and their body weight was measured every 3 days starting from the seventh day. The oral vehicle consisted of 40% ethyl oleate, 12% lecithin, 20% propylene glycol, and 28% Triton X-100. Mice were administered 5 μL of vehicle per gram of body weight along with 50 mg/kg TMZ or a combination of TMZ and compound 1. Intraperitoneal injections were administered with DMSO (solvent control), TMZ (10 μg/kg), TMZ (10 μg/kg), and compound 1 (10 or 20 μg/kg). […]

Series [2] can be described thus: Brain distribution study, UPLC of plasma and brain tissue extract. It counts as in vivo. Particulars: mouse, ip, C57BL/6 mice, 360 mg/kg intraperitoneal. On the procedure:
The liquid chromatography was performed on an Acquity H class UPLC system (Waters Corp., Massachusetts, U.S.) equipped with an ACQUITY Premier PDA eλ detector (Waters Corp., Massachusetts, U.S.) with an autosampler temperature of 15 °C. Separation was performed at 25 °C on a Waters Acquity HSS T3 C18 column (2.1 mm × 100 mm, 1.8 μm particle size) with a gradient elution using A: water (containing 2 mM ammonium acetate and 0.1% formic acid) and B: acetonitrile as the mobile phase. The gradient program is as follows: 96% A (initial), 96% A (1 min), 65% A (7 min), 65% A (7.5 min), 96% A (8 min), and 96% A (12 min). The flow rate was set at 0.5 mL/min, and the injection volume was 3 μL. The UV wavelength was adjusted to 254 nm for compound 1 detection.
Following anesthesia of mice with isoflurane, blood samples were collected via a cardiac puncture. The blood was centrifuged at 2000g for 20 min at 4 °C to obtain plasma. Plasma samples were then mixed with an equal volume of 1 M zinc sulfate heptahydrate solution (cat. no. 221376, Sigma-Aldrich) and allowed to stand for 30 min. Subsequently, the mixture was centrifuged at 12,000g for 30 min at 4 °C, and the supernatant was collected for analysis. Brain tissues were homogenized using a Tenbroeck tissue grinder at a ratio of 5 μL of DMSO per mg of tissue. The homogenates were then centrifuged at 12,000g for 30 min at 4 °C, and the supernatant was collected for analysis.
Compound 1 was prepared in DMSO at a concentration of 180 mg/mL, and […] at 30 mg/mL. C57BL/6 mice were intraperitoneally injected with compound 1 at 360 mg/kg, TMZ at […], or DMSO at 2 μL/g as the control group. Mice were sacrificed by intraperitoneal injection after 30 min, and plasma as well as brain tissue extracts were collected following the aforementioned procedures.

The test system of series [3] is CT-2A mouse astrocyte cell line. The series is described as follows: CCK8 cell proliferation assay, CT-2A. Particulars: CCK8, 72 h. Type of series: cell-based. On the procedure:
Cell viability and drug cytotoxicity were determined by a CCK-8 kit (Cell Counting Kit-8, CK04-13, MD, USA) (CCK8, C0005, Target Molecule Corp., MA, USA) reagent. Cells were seeded 2 × 10^3 per well in the 96-well plate for 24 h, followed by treating at different concentrations of compounds for 72 h. Before the experiment, CCK8 was 10-fold diluted with the culture medium and then incubated with cells for 30 min. Finally, the OD was 450 nm absorbance and calculated for cell viability.

A short description of series [4]: Adverse reactions in treated tumor-bearing mice. Type of series: in vivo. Particulars: mice of the orthotopic tumor models. Here is the method: For orthotopic inoculation, CT-2A cells (1 × 10^5) or CT-2A-R (2 × 10^5) were suspended in 4 μL of DMEM and implanted into the brain of B6 mice. PT#3-R cells (5 × 10^5) were suspended in 4 μL of DMEM and implanted into the brain of SCID mice. After cell implantation, mice were monitored daily for survival, and their body weight was measured every 3 days starting from the seventh day. The oral vehicle consisted of 40% ethyl oleate, 12% lecithin, 20% propylene glycol, and 28% Triton X-100. Mice were administered 5 μL of vehicle per gram of body weight along with 50 mg/kg TMZ or a combination of TMZ and compound 1. Intraperitoneal injections were administered with DMSO (solvent control), TMZ (10 μg/kg), TMZ (10 μg/kg), and compound 1 (10 or 20 μg/kg). Upon the natural death of the mice, brains were extracted and entrusted to BioTools for sectioning and HE staining.
Supplementary information VIII. Body weight changes in mice administered with vehicle, TMZ, and Compound 1 in vivo.
S-VIII-1. Body weight changes in mice administered with DMSO, TMZ, and Compound 1 intraperitoneally following orthotopic CT-2A tumor implantation .
S-VIII-2. Body weight changes in mice administered with vehicle, TMZ, and Compound 1 intraperitoneally following orthotopic CT-2AR tumor implantation.
S-VIII-3. […]

Another series concerns Primary Mouse Astrocyte. The series can be described thus: CCK8 assay, primary culture astrocytes. Type of series: cell-based. On the procedure: The human glioblastoma cell lines U87MG (HTB-14), T98G (CRL-1690), and A172 (CRL-1620) were provided by the American Type Culture Collection (Manassas, VA, USA). The patient-derived cell line PT#3 was purified under the approval of the Institutional Review Board of Taipei Medical University (TMU) (No. 201006011). The murine astrocytoma cell line CT-2A (SCC194) was purchased from Merch Millipore (MA, USA). TMZ-resistant cell lines were established as described previously.[40] All cell lines were cultured in Dulbecco’s modified Eagle’s medium basal medium (Cat# 10-013-CM, CORNING, MA, USA), supplemented with 10% fetal bovine serum (Cat# 12676029, Thermo Fisher Scientific, MA, USA), 100 units/mL penicillin, and 100 μg/mL streptomycin (Cat# 15140122, Thermo Fisher Scientific) at 37 °C in the environment of 95% air and 5% carbon dioxide and maintained resistant characteristic with […] of TMZ (Cat# HY-17364, MedChemExpress, NJ, USA). Primary cultured astrocytes and neurons were derived from E17 embryonic mice. […]
Cell viability and drug cytotoxicity were determined by a CCK-8 kit (Cell Counting Kit-8, CK04-13, MD, USA) (CCK8, C0005, Target Molecule Corp., MA, USA) reagent. […] Finally, the OD was 450 nm absorbance and calculated for cell viability.
A general note: Tetrazolium assays rely on reduction of a dye to a coloured formazan, in cell work by metabolically active cells.

For the compound `O=C(/C=C/c1ccc(CNC[C@H]2CN(c3ccc(N4CCOCC4)c(F)c3)C(=O)O2)cc1)NO` [compound 1, (S,E)-3-(4-((((3-(3-Fluoro-4-morpholinophenyl)-2-oxooxazolidin-5-yl)methyl)ami-no)methyl)phenyl)-N-hydroxyacrylamide], in series [1], the “growth of orthotopic tumors (IVIS)” value is given as “effectively inhibited the growth of orthotopic tumors”. The concentration at 30 min came out at 831 ng/mL in series [2] (brain, read-out: Brain conc.) and 656 ng/mL in series [2] (plasma, read-out: Plasma conc.). In addition, the Kp at 0.5 h in series [2] (brain/plasma, 30 min, read-out: brain/plasma (B/P) ratio) was 1.27. In addition, the IC50 in series [3] was 5.88 ± 0.63 µM; with Primary Mouse Astrocyte it was 143 ± 7.9 µM. Besides, in series [4], the “adverse reactions during the treatment period” value is “without adverse reactions observed”.
